# Experiments:
# [1] = acute oral toxicity in rats, observed during 14 days; format: in vivo, Wistar EOPS rats; conditions: in vivo, rat, 2000 mg/kg
# Procedure: (§1) The acute toxicity of the p-chlorophenyl ester of clofibric acid was determined using two species of animals (Swiss EOPS mice and Wistar EOPS rats) by oral administration, the product being administered in a gum preparation. The animals were observed during 14 days.
# [2] = tested on: serum and liver lipid levels; assay: hypolipidemic activity in rats on regimen rich in lipids, second set of experiments (Table II); format: in vivo, male Wistar EOPS rats
# Procedure: (§2) The hypolipidemic activity was determined in rats subjected to a regimen rich in lipids over the course of 2 sets of experiments.
# 2. Male Wistar EOPS rats weighing in the neighborhood of 140 g receive a regimen rich in lipids during 21 days. Beginning with the eleventh day, the animals receive either a gum preparation containing the product to be tested or a preparation of 6% gum arabic alone, for 6 days out of 7. After the last feeding, and a subsequent 24 hour fast, the animals are sacrificed. A group of animals submitted to a normal regimen is used as a control. The percentage reductions of lipid levels are calculated using the following equation: [formula]
# [3] = acute oral toxicity in mice, observed during 14 days; format: in vivo, Swiss EOPS mice; conditions: mouse, in vivo, po, 2000 mg/kg
# Procedure: as §1
# Swiss EOPS mice = assay: as above; format: in vivo; conditions: general statement
# Procedure: as §1
# Wistar EOPS rats = assay: acute oral toxicity in rats, observed during 14 days; format: in vivo; conditions: rat, 2000 mg/kg
# Procedure: as §1
# [4] = tested on: serum and liver lipid levels; assay: hypolipidemic activity in rats on regimen rich in lipids, first set of experiments (Table I); format: in vivo, conventional male Wistar rats
# Procedure: as §2
# 1. Conventional male Wistar rats weighing 130-150 g were maintained on a regimen rich in lipids for 21 days. At the same time, beginning with the fifteenth day of the regimen, they received a daily dose of either a gum preparation containing the product to be tested or a preparation of 6% gum arabic alone. After a fast of 24 hours, the animals were sacrificed, 22 days after the start of the regimen.
# [5] = subchronic toxicity study, blood levels after one month oral administration (Table III); format: in vivo, male Wistar EOPS rats; set-up: bilirubin: unit not given here
# Procedure: A subchronic toxicity study of the p-chlorophenyl ester of clofibric acid was carried out using the following protocol. The product was administered six days a week during the course of a month, by oral administration in a gum preparation, to male Wistar EOPS rats having an average initial weight of 200 g. After the last feeding, the animals were fasted. A blood sample is taken from the abdominal aorta under anesthesia, then the animals are sacrificed. […] The notation NS or S signifies whether the change induced by the product to be tested was statistically nonsignificant or significant.
# [6] = 125 mg/kg/day, regimen rich in lipids
# [7] = 200 mg/kg/day, regimen rich in lipids
# [8] = 75 mg/kg/day, regimen rich in lipids
# [9] = second dose group, dose not given
compound,measurement,setting,value
"CC(C)(Oc1ccc(Cl)cc1)C(=O)O [clofibric acid, p-chlorophenoxyisobutyric acid, reference compound]",mortality at 336 h,[1],40%
same,Wt. of liver / Wt of rat,[2]; [6],6.99 ± 0.75
same,liver cholesterol level,[2]; [6],127.0 mg/g of liver
same,liver total lipids level,[2]; [6],382.7 mg/g of liver
same,liver triglycerides % reduction,[2]; [6],65%
same,liver triglycerides level,[2]; [6],20.33 mg/g of liver
same,serum cholesterol % reduction,[2]; [6],54%
same,serum cholesterol concentration,[2]; [6],2.31 g/L
same,serum total lipids % reduction,[2]; [6],46%
same,serum total lipids concentration,[2]; [6],4.97 ± 1.41 g/L
same,serum triglycerides concentration,[2]; [6],0.23 ± 0.04 g/L
"CC(C)(Oc1ccc(Cl)cc1)C(=O)Oc1ccc(Cl)cc1 [p-chlorophenyl ester of clofibric acid, p-chlorophenyl 2-(p-chlorophenoxy)-2-methylpropionate]",mortality at 336 h,[3],10%
same,toxicity,Swiss EOPS mice,very low toxicity
same,mortality,Wistar EOPS rats,did not result in any mortality
same,significance of reductions in blood and liver levels,"[4]; 200 mg/kg/day, Table I",significant
same,liver total lipids % reduction,[4]; [7],56%
same,liver total lipids level,[4]; [7],60.82 ± 26.98 mg/g of liver
same,serum cholesterol % reduction,[4]; [7],69%
same,serum cholesterol concentration,[4]; [7],1.33 ± 0.33 g/L
same,serum total lipids % reduction,[4]; [7],81%
same,serum total lipids concentration,[4]; [7],3.87 ± 0.65 g/L
same,hypolipidemic activity compared with clofibric acid and nicotinic acid,"[4]; general statement, total serum lipid and serum cholesterol levels",significantly superior to that of both clofibric acid and nicotinic acid
same,Wt. of liver / Wt of rat,[2]; [8],6.08 ± 0.31
same,liver cholesterol level,[2]; [8],123.0 mg/g of liver
same,liver total lipids level,[2]; [8],323.9 mg/g of liver
same,liver triglycerides % reduction,[2]; [8],48%
same,liver triglycerides level,[2]; [8],23.37 mg/g of liver
same,serum cholesterol % reduction,[2]; [8],32%
same,serum cholesterol concentration,[2]; [8],3.06 g/L
same,serum total lipids % reduction,[2]; [8],34%
same,serum total lipids concentration,[2]; [8],5.56 ± 2.83 g/L
same,serum triglycerides concentration,[2]; [8],0.39 ± 0.06 g/L
same,Wt. of liver / Wt of rat,[2]; [6],6.36 ± 0.31
same,liver cholesterol level,[2]; [6],136.5 mg/g of liver
same,liver total lipids level,[2]; [6],361.9 mg/g of liver
same,liver triglycerides % reduction,[2]; [6],62%
same,liver triglycerides level,[2]; [6],20.84 mg/g of liver
same,serum cholesterol % reduction,[2]; [6],69%
same,serum cholesterol concentration,[2]; [6],1.79 g/L
same,serum total lipids % reduction,[2]; [6],74%
same,serum total lipids concentration,[2]; [6],3.55 ± 0.77 g/L
same,serum triglycerides concentration,[2]; [6],0.35 ± 0.06 g/L
same,Wt. of liver / Wt of rat,[2]; [7],6.70 ± 0.50
same,liver cholesterol level,[2]; [7],135.2 mg/g of liver
same,liver total lipids level,[2]; [7],382.0 mg/g of liver
same,liver triglycerides % reduction,[2]; [7],89%
same,liver triglycerides level,[2]; [7],16.20 mg/g of liver
same,serum cholesterol % reduction,[2]; [7],67%
same,serum cholesterol concentration,[2]; [7],1.84 g/L
same,serum total lipids % reduction,[2]; [7],69%
same,serum total lipids concentration,[2]; [7],3.81 ± 0.97 g/L
same,serum triglycerides concentration,[2]; [7],0.22 ± 0.06 g/L
same,reduction of serum lipid and cholesterol levels compared with the acid,"[2]; at equal dosage levels, vs clofibric acid",reduces serum lipid and cholesterol levels to a greater degree than the acid
same,increase in liver weight compared with the acid,"[2]; at equivalent dosage levels, vs clofibric acid","smaller than when the acid is used, and this difference is statistically significant"
same,weight of the animals' livers,[2]; regimen rich in lipids,increases
same,alkaline phosphatase,[5]; 100 mg/kg/day,25.0 ± 4.9 mU/ml
same,bilirubin,[5]; 100 mg/kg/day,3.68 ± 0.73
same,cholesterol,[5]; 100 mg/kg/day,0.47 ± 0.04 g/L
same,glycemia,[5]; 100 mg/kg/day,1.58 ± 0.15 g/L
same,total lipids,[5]; 100 mg/kg/day,2.92 ± 0.54 g/L
same,triglycerides,[5]; 100 mg/kg/day,0.83 ± 0.27 g/L
same,urea,[5]; 100 mg/kg/day,0.42 ± 0.07 g/L
same,alkaline phosphatase,[5]; 500 mg/kg/day,38.4 ± 9.9 mU/ml
same,bilirubin,[5]; 500 mg/kg/day,5.04 ± 1.09
same,cholesterol,[5]; 500 mg/kg/day,0.32 ± 0.06 g/L
same,glycemia,[5]; 500 mg/kg/day,1.41 ± 0.26 g/L
same,total lipids,[5]; 500 mg/kg/day,2.77 ± 0.42 g/L
same,triglycerides,[5]; 500 mg/kg/day,1.09 ± 0.33 g/L
same,urea,[5]; 500 mg/kg/day,0.40 ± 0.05 g/L
same,alkaline phosphatase,[5]; [9],33.5± 7.8 mU/ml
same,bilirubin,[5]; [9],4.82 ± 1.85
same,cholesterol,[5]; [9],0.37 ± 0.07 g/L
same,glycemia,[5]; [9],1.57 ± 0.15 g/L
same,total lipids,[5]; [9],2.54 ± 0.35 g/L
same,triglycerides,[5]; [9],0.74 ± 0.1 g/L
same,urea,[5]; [9],0.34 ± 0.07 g/L

# Reference: patent US4179519A, “Method and composition for reducing serum lipid levels using p-chlorophenyl p-chlorophenoxyisobutyrate” (priority 1978, dated 1979)
